The subject of this test is E. coli ribosomes. Particulars: 20 nM competitor, 20 nM oxazolidinone-TAMRA reporter.

Method: The interaction between oxazolidinone-TAMRA and E. coli ribosomes was monitored by comparing the change in fluorescence anisotropy in the presence and absence of 100 μM non-fluorescent oxazolidinone competitor. Each measurement was made in a 400 μl cuvette, in a Perkin Elmer LS50B fluorimeter. Increasing amounts of ribosomes (corresponding to the amounts shown in FIG. 6) were added to a solution of 20 nM oxazolidinone-TAMRA in the presence of 50 mM Tris.HCl pH 7.5, 70 mM NH4Cl, 30 mM KCl, 7 mM MgCl2, 1 mM DTT, 0.5 mM EDTA. For each titration point an anisotropy measurement was acquired using an excitation wavelength of 554 nm with the excitation slits set to 10 nm and an emission wavelength of 575 nm with the emission slits set to 10 nm.
The same experiment was performed, but using 20 nM non-fluorescent linezolid (an oxazolidinone) as the competitor.

For `CC(=O)NC[C@H]1CN(c2ccc(N3CCOCC3)c(F)c2)C(=O)O1` [linezolid], the “anisotropy upon addition of the ribosomes in the presence of competitor” value is listed as “considerably reduced”.
